# According to US20210355545A1, “METHODS AND MATERIALS FOR ASSESSING AND TREATING CANCER” (The Johns Hopkins University, priority 2018, published 2021):
# Test system: ovarian cancer cell lines
# Assay: Cell growth inhibition (viable cell count, trypan blue exclusion) of ovarian cancer cell lines after seven days with inhibitor; logIC50 modelled against alteration status
# Type: cell-based, human
# Settings: for increased sensitivity to PARP inhibition: from difference of mean log IC50
# Protocol: To begin to understand the relationship between genomic, epigenetic and expression alterations and response to pathway inhibitors, a screening platform was developed for evaluating cellular proliferation in the presence of candidate therapeutic agents. As an example of the analyses that can be performed and the genotype-phenotype connections that can be obtained, IC20, IC50, and IC80 were measured after seven days of incubation for three inhibitors, GNE-493, BMN673, and MEK162, targeting PI3K, PARP, and MEK proteins, respectively (Table 11). Aggregating the molecular information from multiple platforms to the gene level, analyses was limited to genes that were altered in three or more of the 45 cell lines. Alterations that tend to be mutually exclusive between cell lines were combined, including genes in the PI3K pathway (PIK3CA and PPP2R1A) and the genes in the TGFBR pathway (SMAD3 and SMAD4). As tumors with homologous recombination deficiencies (HRD) have been known to be sensitive to PARP inhibitors, covariates summarizing the extent of genome-wide structural alterations for the PARP inhibitor BMN673 were additionally added. A priori it was hypothesized that most alterations would not modulate response to the targeted inhibitors. Implementing a Bayesian model averaging approach to variable selection as has been considered for other biomarkers (see, e.g., Viallefont et al., 2001 Statistics in Medicine 20:3215-3230; Neto et al., 2014 Pacific Symposium on Biocomputing. Pacific Symposium on Biocomputing: 27-38; and Meisner et al., 2018 Biomarker research 6:3), a positive prior probability that the coefficient for each gene is exactly zero was specified. Given the genes or combination of genes and structural variant summaries, the space of possible single- and multi-variate models for logIC50 was explored by Markov Chain Monte Carlo. Relevant posterior summaries available for each inhibitor include the probability that the regression coefficient is non-zero and the posterior distribution of the regression coefficients.
# Cell lines were obtained from multiple sources (Table 1). Cells were plated into 24-well tissue culture plates at a density of 2×10^5 to 5×10^5 cells per well and grown in cell-line-specific medium without or with increasing concentrations of their respective drugs (ranging between […]).
# Cells were counted on day 7 using an automated cell viability assay (Vi-CELL XR Cell Viability Analyzer, Beckman Coulter, Fullerton, Calif., USA), a video imaging system that uses an automated trypan blue exclusion protocol. Both adherent and floating viable cells were counted for treatment and control wells. Growth inhibition (GI) was calculated as a percentage of untreated controls. The log of the fractional GI was then plotted against the log of the drug concentration and the IC50 values were interpolated from the resulting linear regression curve fit (CalcuSyn; Biosoft, Ferguson, Mo., USA). Experiments were performed thrice in duplicate for each cell line.
# Bayesian model averaging: models of the form
# were considered where Ci denotes the logIC50 and xi;j an indicator for the alteration status (0 not altered, 1 altered) of feature j in cell line i. The regression coefficient for feature j is the product of a binary indicator zj and a real number hj. A modified g-prior was used for γ such that γj was zero whenever zj was zero. For the vector of γ's with non-zero z's, a multivariate normal prior was used. The space of the possible 2p models was explored using a Gibbs sampler. The binary features comprising the x's included somatic mutations, somatic structural variants (deletions, amplifications, in-frame fusions), methylation, and under- or over-expression. For the PARP inhibitor, the number of intra-chromosomal rearrangements and the HRD score as potential markers for HRD were additionally considered. […]
structure (smiles),measurement,setting,value
"Cn1ncnc1[C@H]1c2n[nH]c(=O)c3cc(F)cc(c23)N[C@@H]1c1ccc(F)cc1 [BMN673, talazoparib]",increased sensitivity to PARP inhibition,"cell lines with MYC amplification vs without, 90% CI: 99%-64%",93%
same,association with sensitivity to PARP inhibition,"cell lines with inactivating BRCA1/2 mutations, HRD score, PARP1 expression",trend towards increased sensitivity to PARP inhibition but were not statistically significant
same,increased sensitivity to PARP inhibition,"cell lines with increased number of genome-wide rearrangements vs without, 90% CI, 96%-43%",86%
CC(C)(O)c1cc2nc(-c3cnc(N)nc3)nc(N3CCOCC3)c2s1 [GNE-493],increased sensitivity,cancer cell lines with mutations in PARP1 or PPP2R1A (so in the source),66%
same,difference in mean logIC50 by alteration status,"cell lines with mutations in PIK3CA or PPP2R1A vs without, 7 days incubation",−0.63
same,increased sensitivity to the inhibitor,"cell lines with mutations in PIK3CA or PPP2R1A vs without, FIG. 6B legend, 90% HPD: 5-72",48%
"Cn1cnc2c(F)c(Nc3ccc(Br)cc3F)c(C(=O)NOCCO)cc21 [MEK-162, binimetinib]",increased sensitivity,cell lines with mutations or deletions in SMAD3 or SMAD4,89%
